According to paper PMC7898037, “Improving mitochondria and ER stability helps eliminate upper motor neuron degeneration that occurs due to mSOD1 toxicity and TDP‐43 pathology” (Clinical and Translational Medicine, 2021):
“And” between values parts separate entries of the source, which are not always exact repeats. Identical values can stand only once.

Legend:
[1] = design: method as in PMID 22189273, PMID 22837812; details: cited from earlier work
[2] = system: LMNs in the lumbar spinal cord of hSOD1^G93A‐UeGFP mice; assay: Lower motor neuron (LMN) quantification in lumbar spinal cord, hSOD1^G93A‐UeGFP mice; type: in vivo; details: for Mean, Fig. 8E (LMN quantification in lumbar spinal cord) / Mean, Fig. 8F (LMN quantification in lumbar spinal cord) / Mean, Fig. 8G (LMN quantification in lumbar spinal cord): hSOD1G93A-UeGFP mice; for number of LMNs per section, lumbar spinal cord / number of NeuN^+/ChAT^+ LMNs (vulnerable to degeneration): hSOD1^G93A‐UeGFP mice, P120
Experimental: (§1) hSOD1^G93A‐UeGFP, prpTDP‐43^A315T‐UeGFP and WT‐UeGFP mice were weighed and the required NU‐9 dose per weight was calculated (20 or 100 mg/kg), which was administered once daily by oral gavage, starting at postnatal day (P)60 and continuing until P120. Animals from the untreated group received the vehicle (NMP and olive oil) only. For oral administration purposes, 20 ga × 38 mm plastic feeding tubes were used (Instech Laboratories, Inc). The gavage tip was inserted into the mouth directly over the tongue and into the pharynx. While observing the swallowing reflex, the tip was safely and smoothly slid into the esophagus. Once the administration was completed, the gavage tip was pulled straight out.
A 5‐mm block of lumbar spinal cord was sectioned in 50‐µm thick sections with a vibratome (Leica), and every other section was used for immunohistochemical analysis. LMNs were identified based on their location in the ventral horn and expression of the molecular marker ChAT. 10× Images were captured using an inverted epifluorescent Eclipse TE2000‐E microscope (Nikon). GFP^+/ChAT^+ and NeuN^+/ChAT^+ LMNs were quantified per section. The average number of LMNs per section is reported per mouse with n = 5 mice per group.

[3] = system: misfolded SOD1 in UMNs of hSOD1^G93A‐UeGFP mice; assay: Quantification of misfolded SOD1 (B8H10) in UMNs; type: in vivo; details: for misfolded SOD1 level in UMNs (average integrated density): hSOD1^G93A‐UeGFP mice
Experimental: as §1
The antibodies used are as follows: anti‐GFP (1:1000, Invitrogen; or 1:1000, Abcam) and anti‐misfolded SOD1 (B8H10, 1:250, Médimabs). Briefly, sections were treated with blocking solution (PBS, 0.05% BSA, 2% FBS, 1% Triton X‐100, and 0.1% saponin) for 30 min at room temperature and incubated with primary antibody diluted in blocking solution overnight at 4°C. Appropriate secondary fluorescent antibodies (1:500, AlexaFluor‐conjugated, Invitrogen) were added to the blocking solution at room temperature for 2 h in the dark.
50‐µm thick sections of primary motor cortex were captured using the 20× objective on an inverted epifluorescent Eclipse TE2000‐E microscope using the same settings and exposure time for all of the samples. eGFP positive (eGFP^+) UMNs in focal plane with sharp boundaries and a visible nucleus were traced using ImageJ (NIH). ROI were transferred to the misfolded SOD1 channel, and the integrated density was measured to determine the levels of misfolded SOD1 in GFP^+ UMNs only. Fifty to 90 UMNs were analyzed per mouse, and the average integrated density was reported per experimental group. For visualization purposes of misfolded SOD1 fluorescence intensity, nd2 files were opened in ImageJ and spectrum look‐up table (LUT) was applied to the appropriate channel.

[4] = system: UMNs in the motor cortex of WT‐UeGFP mice; assay: UMN quantification in motor cortex, WT‐UeGFP mice; type: in vivo
Experimental: as §1
Since UMNs are genetically labeled with eGFP expression in the motor cortex of WT‐UeGFP, hSOD1^G93A‐UeGFP, and prpTDP‐43^A315T‐UeGFP mice, UMNs were identified based on the GFP expression. Quantitative analyses were performed on three matched rostrocaudal sections spanning the motor cortex. Three images per subject were taken to capture a 4× objective filed that encompass layer 5 of the motor cortex. An inverted epifluorescent Eclipse TE2000‐E microscope (Nikon) with the same exposure time and intensity was used. UMNs were counted only if their soma and apical dendrite were both visualized in the same 50‐µm thick section. Images were analyzed in ImageJ (NIH) using the Find maxima processing command to determine the local maxima within a predetermined region of interest that circumscribes the layer 5 of the motor cortex. A universal noise tolerance, which ignores the local maxima corresponding to background and autofluorescence, was applied to all images.

[5] = hSOD1G93A-UeGFP vehicle minus NU-9 20 mg/kg/day, Tukey's multiple comparisons test
[6] = hSOD1G93A-UeGFP vehicle minus NU-9 100 mg/kg/day, Tukey's multiple comparisons test
[7] = WT-UeGFP mice, NU-9 100 mg/kg/day
[8] = WT-UeGFP vehicle minus NU-9 100 mg/kg/day, Tukey's multiple comparisons test

C[C@H](Oc1cc(C(F)(F)F)cc(C(F)(F)F)c1)C1CC(=O)CC(=O)C1 [NU‐9]
Solubility (aqueous) [1]: ≥ 100 µM and ≥ 37 µg/ml
Mean, Fig. 8E (LMN quantification in lumbar spinal cord) ([2]; NU-9 20 mg/kg/day): 12.11
Mean, Fig. 8F (LMN quantification in lumbar spinal cord) ([2]; NU-9 20 mg/kg/day): 6.506
Mean, Fig. 8G (LMN quantification in lumbar spinal cord) ([2]; NU-9 20 mg/kg/day): 18.62
Mean, Fig. 8E (LMN quantification in lumbar spinal cord) ([2]; NU-9 100 mg/kg/day): 9.708
Mean, Fig. 8F (LMN quantification in lumbar spinal cord) ([2]; NU-9 100 mg/kg/day): 4.426
Mean, Fig. 8G (LMN quantification in lumbar spinal cord) ([2]; NU-9 100 mg/kg/day): 14.13
Mean Diff., Fig. 8E, GS Vehicle vs. GS NU-9 (20) [2, 5]: -1.853
Mean Diff., Fig. 8F, GS Vehicle vs. GS NU-9 (20) [2, 5]: 0.3602
Mean Diff., Fig. 8G, GS Vehicle vs. GS NU-9 (20) [2, 5]: -1.493
Mean Diff., Fig. 8E, GS Vehicle vs. GS NU-9 (100) [2, 6]: 0.5524
Mean Diff., Fig. 8F, GS Vehicle vs. GS NU-9 (100) [2, 6]: 2.44
Mean Diff., Fig. 8G, GS Vehicle vs. GS NU-9 (100) [2, 6]: 2.992
number of LMNs per section, lumbar spinal cord ([2]; 20 mg/kg/day): 18.6 ± 0.4 LMN
number of NeuN^+/ChAT^+ LMNs (vulnerable to degeneration) ([2]; 20 mg/kg/day): 12.1 ± 0.4 LMN
number of LMNs per section, lumbar spinal cord ([2]; 100 mg/kg/day): 14.1 ± 1.3 LMN
number of NeuN^+/ChAT^+ LMNs (vulnerable to degeneration) ([2]; 100 mg/kg/day): 9.7 ± 0.9 LMN
numbers of GFP^+ and ChAT^+ LMN (resistant to degeneration) ([2]; regardless of genotype or treatment): comparable
Fig. 3E group mean (integrated density of misfolded SOD1 fluorescence in UMNs) ([3]; hSOD1G93A-UeGFP (NU-9 20 mg/kg/day)): 132928
Fig. 3E group mean (integrated density of misfolded SOD1 fluorescence in UMNs) ([3]; hSOD1G93A-UeGFP (NU-9 100 mg/kg/day)): 120052
misfolded SOD1 level in UMNs (average integrated density) ([3]; 20 mg/kg/day oral gavage P60–P120): 1.33 × 10^5 ± 0.11 × 10^5 au
misfolded SOD1 level in UMNs (average integrated density) ([3]; 100 mg/kg/day oral gavage P60–P120): 1.2 × 10^5 ± 0.07 × 10^5 au
Mean, Fig. 5E (UMN quantification in motor cortex) [4, 7]: 65.5
Mean, Fig. 7H (UMN quantification in motor cortex) [4, 7]: 65.5
Mean Diff., Fig. 5E, G Vehicle vs. G NU-9 (100) [4, 8]: -6.183
Mean Diff., Fig. 7H, G Vehicle vs. G NU-9 (100) [4, 8]: -6.183
average number of UMNs per section in the motor cortex ([4]; WT‐UeGFP mice, 100 mg/kg/day oral gavage P60–P120): 66 ± 1 UMNs
